These results are taken from patent US5908868A, “Retinol derivatives useful for enhancing immune response” (priority 1995, dated 1999).

The test system of assay [1] is B lymphocytes. The note with it: previous analyses with B lymphocytes (33); cited from earlier work.
Assay [2] relates to lymphoblastoid cells (LCL). The settings on record: serum-free medium; cited from earlier work.
The test system of assay [3] is thymocytes. Description: Proliferation of anti-CD3e activated thymocytes in serum-free medium. In kind it is cell-based, BALB/c mouse. The protocol: FIG. 14A: Purified BALB/c thymocytes were activated with immobilized anti-CD3e antibody and cultivated for four days in ITLB medium with or without retinol (3×10^-6 M), 14HRR (6×10^-7 M) (fresh 14HRR was added every 12 hours), human serum (3%) or FCS (10%) at the cellular densities shown. Proliferation was assayed by tritiated thymidine incorporation into cellular DNA. The SDs were below 20%.
FIG. 14B: BALB/c thymocytes (10^6 /ml) were added to microtiter plates coated with titrated amounts of anti-CD3e antibody with […] retinol or without, as indicated. Proliferation was measured in hexaduplicate wells on day 3 by ^3 H thymidine incorporation assay.
FIG. 14C: BALB/c thymocytes (3×10^6 /ml) were activated with anti-CD3e mAb as FIG. 1A. The total number of viable cells was determined by counting trypan blue-excluding cells, and those of blast cells by counting viable large cells in six replicate wells. Because of the relatively low cell density required in the culture (see FIG. 14A), the numbers reported for blast cells are best estimates.
Purified thymocytes (5×10^5 cells/well) were stimulated by TCR crosslinking with immobilized anti-CD3e antibody (FIG. 15A) or 0.4 μg/ml Con A (FIG. 15B) in serum-free ITLB medium. The indicated amounts of retinoids were added either once at the beginning of the experiment (marked as "1x") or every 12 hours thereafter (marked as "6x"). DNA synthesis was measured after 72 hours by tritiated thymidine uptake as described.
Purified thymocytes (10^5 cells/well) were activated with anti-CD3 antibody in ITLB medium with or without retinol (3×10^-6 M), 14HRR (6×10^-7, added every 12 hours or human serum (3%)). DNA synthesis was measured daily by a 4 hour pulse of tritiated thymidine. SDs were ≤12%.
Thymocytes (5×10^4 /well) were activated by immobilized anti-CD3 mAb in medium ITLB. Retinol (2×10^-6 M) was added at initiation of culture, or delayed by 12 hours and 24 hours, respectively, or omitted altogether. ^3 H thymidine pulses of 4 hours were used to measure DNA synthesis of hexaduplicate wells. (SDs were 20% or less.)
Thymuses of 3 to 6-week-old BALB/c mice were teased in serum-free RPMI medium supplemented with 1% BSA, 10^-6 M linoleic acid and antibiotics. Depletion of accessory cells was achieved by two cycles of complement-dependent lysis with a mixture of anti-IA^d (5 μg/ml) and anti-Itd (1:500 diluted ascites fluid). Briefly, cells were incubated on ice for 30 minutes with Ia antibodies, spun down, resuspended in 1:40 diluted rabbit complement, and incubated at 37° C. for 45 minutes. Incubations and two subsequent washes were carried out with RPMI medium containing 1% BSA. Cell viability was evaluated by trypan blue dye exclusion. To determine the extent of depletion of accessory cells, samples were stained with FITC-conjugated anti-Fc receptor antibody and analyzed by flow cytometry on a FACScan instrument (Becton Dickinson). No FcR-bearing cells were detected by this procedure.
Cells were cultured in serum-free medium, referred to as ITLB, containing RPMI 1640 supplemented with 8×10^-7 M insulin (5 μg/ml), 7×10^-8 M transferrin (5 μg/ml), 2×10^-6 M linoleic acid, 2×10^-6 M delipidated BSA (0.12 mg/ml), 2 mM L-glutamine, 1 mM sodium pyruvate and antibiotics. They were seeded into 96-well flat-bottom plates at varying cellular densities in a final volume of 100 μl. In control experiments, cells were cultured in medium containing 10% FCS or 3% human serum and 5×10^-5 M 2 ME. T cells and thymocytes were activated with immobilized, purified anti-mab CD3e or by the addition of Con A in the presence or absence of different concentrations of retinoids. Unless indicated otherwise, retinoids were replenished every 12 hours to maintain a reasonably constant concentration of these labile compounds in culture. […]

For a further assay, the system named is T cells. Description: T cell activation/proliferation. Type of assay: cell-based, murine. The settings on record: for substitution for retinol in T cell activation: with mitogen/anti-CD3; for activity in T cell activation relative to natural 13,14-DHR: synthetic isomers. The protocol:
(§1) They were seeded into 96-well flat-bottom plates at varying cellular densities in a final volume of 100 μl. In control experiments, cells were cultured in medium containing 10% FCS or 3% human serum and 5×10^-5 M 2 ME. […] Cultures were carried out in duplicate. Plates were incubated at 37° C. in a humidified 5% CO2 atmosphere. Cellular proliferation was determined by [^3 H] thymidine uptake (0.5 uCi/well; New England Nuclear, Boston, Mass.) after the incubation times indicated for each experiment with a 4 hour labeling pulse. Cells were harvested onto glass filter and [^3 H]TdR incorporation was determined by liquid scintillation counting. The data presented are the means of duplicate or six replicate cultures. The restriction to duplicate measurements was necessary to conserve scarce 14HRR. […] Each experiment was repeated at least twice.

Assay [4] relates to B lymphocytes. Description: B cell growth/survival. Type of assay: cell-based. The note with it: synthetic isomers.
Assay [5] has as its system thymocytes. Description: Growth-stimulating effect of retinol on anti-CD3 activated thymocytes in the presence of interleukins. In kind it is cell-based, BALB/c mouse. The note with it: 3 days.
The subject of assay [6] is thymocytes. The description is as above. In kind it is cell-based, BALB/c mouse. The note with it: for substitution for retinol by lymphokines/cytokines: anti-CD3-activated thymocytes; for substitution for retinol by lymphokines/cytokines / CPM anti-CD3, no Retinol: no retinol; for CPM anti-CD3, no Retinol: 3 days. The protocol:
as §1, with “Cells were cultured in serum-free medium, referred to as ITLB, containing RPMI 1640 supplemented with 8×10^-7 M insulin (5 μg/ml), 7×10^-8 M transferrin (5 μg/ml), 2×10^-6 M linoleic acid, 2×10^-6 M delipidated BSA (0.12 mg/ml), 2 mM L-glutamine, 1 mM sodium pyruvate and antibiotics. They” for “They”, “ME. T cells and thymocytes were activated with immobilized, purified anti-mab CD3e or by the addition of Con A in the presence or absence of different concentrations of retinoids. Unless indicated otherwise, retinoids were replenished every 12 hours to maintain a reasonably constant concentration of these labile compounds in culture.” for “ME.”
Proliferation of activated thymocytes in response to interleukins in presence and absence of retinol. Purified thymocytes (5×10^5 cells/well) were activated with immobilized anti-CD3 antibody in serum-free medium in the presence or absence of interleukins and retinol (3×10^-6 M). Proliferation was assayed after three days by tritiated thymidine incorporation.

Entries after “also recorded” stand apart in the source; their conditions may differ.

As to `CC1=C(/C=C/C(C)=C/C=C/C(C)=C/C=O)C(C)(C)CCC1` [all-trans retinal], the “concentration at which activity was demonstrated” value in the assay with B lymphocytes [1] is 200 nM. Further, in assay [2], the “support of growth of LCL” value was “support the growth of LCL”. Besides, in the assay with thymocytes [3], the “effectiveness relative to all-trans retinol” value is reported as “equally effective as all-trans retinol”. The “substitution for retinol in T cell activation” value with T cells is “can substitute for retinol”.

Consider `CC1=C(/C=C/C(C)=C/C=C/[C@@](C)(O)[C@H](O)CO)C(C)(C)CCC1` [all-trans (13R, 14R)-DHR], for which, in the assay with T cells, the “activity in T cell activation relative to natural 13,14-DHR” value was “same activity”. The “activity in supporting B cell growth relative to natural 13,14-DHR” value in the assay with B lymphocytes [4] is recorded as “same activity”.

Consider “IL-6: hrIL-6 purchased from Boehringer Mannheim”, for which, in the assay with thymocytes [5], the “CPM anti-CD3, 10^-6 M Retinol” value is listed as 130,590 ± 25,803 CPM. Also, in the assay with thymocytes [6], the “substitution for retinol by lymphokines/cytokines” value was “None and none”; the “CPM anti-CD3, no Retinol” value is on record as 1,005 ± 815 CPM.

Regarding `CC1=C(/C=C/C(C)=C/C=C/C(C)=C\CO)C(C)(C)CCC1` [13-cis-retinol], the “effectiveness relative to all-trans retinol” value in the assay with thymocytes [3] is listed as “equally effective as all-trans retinol”. In addition, the “substitution for retinol in T cell activation” value in the assay with T cells is given as “can substitute for retinol”.

As to `CC1=C(/C=C/C(C)=C/C=C/[C@](C)(O)[C@H](O)CO)C(C)(C)CCC1` [all-trans (13S, 14R)-DHR], the “activity in T cell activation relative to natural 13,14-DHR” value in the assay with T cells was “same activity”. Besides, the “activity in supporting B cell growth relative to natural 13,14-DHR” value in the assay with B lymphocytes [4] is on record as “same activity”.

Consider `CC1=C(/C=C/C(C)=C\C=C\[C@](C)(O)[C@H](O)CO)C(C)(C)CCC1` [9-cis-(13S, 14R)-DHR], for which, in the assay on T cells, the “activity in T cell activation relative to natural 13,14-DHR” value was “same activity”. Also, the “activity in supporting B cell growth relative to natural 13,14-DHR” value in the assay on B lymphocytes [4] is “same activity”.

Take TNF-alpha: the “CPM anti-CD3, 10^-6 M Retinol” value in the assay with thymocytes [5] is 122,905 ± 11,577 CPM. Moreover, the “substitution for retinol in T cell activation” value with T cells is “cannot be satisfied”. Moreover, in the assay on thymocytes [6], the “substitution for retinol by lymphokines/cytokines” value was “none” and the “CPM anti-CD3, no Retinol” value was 464 ± 95 CPM. The “substitution for retinol by lymphokines/cytokines” value in the assay on thymocytes [6] (listed as TNF-α) is “does not”.

On to `CC1=C(/C=C/C(C)=C\C=C\[C@@](C)(O)[C@H](O)CO)C(C)(C)CCC1` [9-cis-(13R, 14R)-DHR], for which the “activity in T cell activation relative to natural 13,14-DHR” value with T cells is on record as “same activity”. In the assay with B lymphocytes [4], the “activity in supporting B cell growth relative to natural 13,14-DHR” value is on record as “same activity”.

B1: IL-1: Human recombinant IL-1-α (protein, UniProt P01583 113-271, looked up)
Interleukin-1 alpha: SAPFSFLSNVKYNFMRIIKYEFILNDALNQSIIRANDQYLTAAALHNLDEAVKFDMGAYKSSKDDAKITVILRISKTQLYVTAQDEDQPVLLKEMPEIPKTITGSETNLLFFWETHGTKNYFTSVAHPNLFIATKQDYWVCLAGGPPSITDFQILENQA
On to B1, for which the “CPM anti-CD3, 10^-6 M Retinol” value in the assay with thymocytes [5] is listed as 118,924 ± 3,051 CPM. In the assay with thymocytes [6], the “substitution for retinol by lymphokines/cytokines” value was “None and none”; the “CPM anti-CD3, no Retinol” value was found to be 959 ± 30 CPM.

B2: IFN-gamma: mouse recombinant IFN-gamma (protein, UniProt P01580 23-155, looked up)
Interferon gamma: HGTVIESLESLNNYFNSSGIDVEEKSLFLDIWRNWQKDGDMKILQSQIISFYLRLFEVLKDNQAISNNISVIESHLITTFFSNSKAKKDAFMSIAKFEVNNPQVQRQAFNELIRVVHQLLPESSLRKRKRSRC
Consider B2, for which, in the assay with thymocytes [5], the “CPM anti-CD3, 10^-6 M Retinol” value is 220,359 ± 27,726 CPM. Also, the “substitution for retinol in T cell activation” value in the assay with T cells is on record as “can substitute for retinol”. Besides, the “substitution for retinol by lymphokines/cytokines” value in the assay with thymocytes [6] is “can circumvent the retinol requirement and initiate durable proliferation in the absence of retinol or 14HRR”; in the assay with thymocytes [6] (listed as interferon-gamma), “can sustain thymocyte proliferation in the absence of retinol; also recorded: quite efficient in anti-CD3-mediated activation in the absence of retinol”. In the assay on thymocytes [6], the “CPM anti-CD3, no Retinol” value was 81,876 ± 11,866 CPM. Moreover, the synergy with retinol entry with thymocytes [6] is given as “strong additive effects”; in the assay with thymocytes [6] (listed as Interferon-gamma), “clear additive effect with retinol”.

B3: IL-4: murine rIL-4 (protein, UniProt P07750 21-140, looked up)
Interleukin-4: HIHGCDKNHLREIIGILNEVTGEGTPCTEMDVPNVLTATKNTTESELVCRASKVLRIFYLKHGKTPCLKKNSSVLMELQRLFRAFRCLDSSISCTMNESKSTSLKDFLESLKSIMQMDYS
Turning to B3, the “CPM anti-CD3, 10^-6 M Retinol” value with thymocytes [5] is listed as 115,849 ± 20,630 CPM. Further, in the assay on thymocytes [6], the “substitution for retinol by lymphokines/cytokines” value was “None and none”; the “CPM anti-CD3, no Retinol” value stood at 991 ± 105 CPM.
